Test results published in patent EP2398468B1, “PHARMACEUTICAL COMPOSITIONS COMPRISING PRASUGREL BASE OR ITS PHARMACEUTICALLY ACCEPTABLE ACID ADDITION SALTS AND PROCESSES FOR THEIR PREPARATION” (KRKA, D.D., Novo Mesto, priority 2009, dated 2010).
≈ marks a conversion by molar mass, not a printed value. Counter-ions that a name gives are not always drawn. Like-named read-outs stand apart in the source and are kept apart here. Each block holds one compound with its values, some of them ahead of it.

Columns and labels:
physchem = assay type: physicochemical
[1] = Equilibrium solubility in aqueous solutions, shaking flask method for 24 hours; assay type: physicochemical; settings: for Solubility (mg/mL) at 37°C / Solubility (mg/mL) room temp / solubility at 24 h: 24 hours; for solubility at 24 h: thermodynamic from solid
Experimental: The solubility of prasugrel base and some of its pharmaceutically acceptable salts in different dissolution media (in mg/mL) at room temperature and 37°C is given in Table 2. The equilibrium solubility of prasugrel base and some of its salts were checked in aqueous solutions at room temperature and 37 °C with shaking flask method for 24 hours (Heidoplh Incubator 1000, Unimax 1010). In comparison with prasugrel base, all salts are better soluble in lower pH values. In higher pH values the solubility decreases and at pH 6.8 the compound is slightly soluble to practically insoluble. […]

Structure (SMILES): CC(=O)Oc1cc2c(s1)CCN(C(C(=O)C1CC1)c1ccccc1F)C2 (stereo not drawn) [Prasugrel base, 2-acetoxy-5-([alpha]-cyclopropylcarbonyl-2-fluorobenzyl)-4,5,6,7-tetrahydrothieno[3,2-c]pyridine]
pKa (physchem): 5.4
Solubility (mg/mL) at 37°C ([1]; AGJ (without pepsin) pH 1.2, 37°C): 3.23 mg/mL (≈ 8650 µM)
Solubility (mg/mL) room temp ([1]; AGJ (without pepsin) pH 1.2, room temperature): 1.54 mg/mL (≈ 4120 µM)
Solubility (mg/mL) at 37°C ([1]; Acetate Buffer solution pH 4.0, 37°C): 0.03 mg/mL (≈ 80.3 µM)
Solubility (mg/mL) room temp ([1]; Acetate Buffer solution pH 4.0, room temperature): 0.03 mg/mL (≈ 80.3 µM)

solubility at 24 h ([1]; AGJ (without pepsin) pH 1.2, 37 °C, pH 1.2, simulated gastric fluid, AGJ (without pepsin) pH 1.2, 37°C, read-out: Solubility (mg/mL) at 37°C): 4.1 mg/mL
Solubility (mg/mL) room temp ([1]; AGJ (without pepsin) pH 1.2, room temperature, hydrobromide): 3.924 mg/mL
Solubility (mg/mL) at 37°C ([1]; Acetate Buffer solution pH 4.0, 37°C, hydrobromide): 0.153 mg/mL
Solubility (mg/mL) room temp ([1]; Acetate Buffer solution pH 4.0, room temperature, hydrobromide): 0.138 mg/mL
Solubility (mg/mL) at 37°C ([1]; Phosphate Buffer solution pH 6.8, 37°C, hydrobromide): 0.009 mg/mL
solubility at 24 h ([1]; phosphate buffer solution pH 6.8, pH 6.8, aqueous buffer, Phosphate Buffer solution pH 6.8, room temperature, read-out: Solubility (mg/mL) room temp): 0.003 mg/mL
Structure (SMILES): CC(=O)Oc1cc2c(s1)CCN(C(C(=O)C1CC1)c1ccccc1F)C2 (stereo not shown) [Prasugrel hydrobromide]

Solubility (mg/mL) at 37°C ([1]; AGJ (without pepsin) pH 1.2, 37°C, hydrochloride): 4.43 mg/mL
Solubility (mg/mL) room temp ([1]; AGJ (without pepsin) pH 1.2, room temperature, hydrochloride): 5.00 mg/mL
Solubility (mg/mL) at 37°C ([1]; Acetate Buffer solution pH 4.0, 37°C, hydrochloride): 0.08 mg/mL
Solubility (mg/mL) room temp ([1]; Acetate Buffer solution pH 4.0, room temperature, hydrochloride): 0.07 mg/mL
Structure (SMILES): CC(=O)Oc1cc2c(s1)CCN(C(C(=O)C1CC1)c1ccccc1F)C2 (stereo not shown) [Prasugrel hydrochloride]

Solubility (mg/mL) at 37°C ([1]; AGJ (without pepsin) pH 1.2, 37°C, hydroiodide): 3.660 mg/mL
Solubility (mg/mL) room temp ([1]; AGJ (without pepsin) pH 1.2, room temperature, hydroiodide): 2.600 mg/mL
Solubility (mg/mL) at 37°C ([1]; Acetate Buffer solution pH 4.0, 37°C, hydroiodide): 0.166 mg/mL
Solubility (mg/mL) room temp ([1]; Acetate Buffer solution pH 4.0, room temperature, hydroiodide): 0.132 mg/mL
Solubility (mg/mL) at 37°C ([1]; Phosphate Buffer solution pH 6.8, 37°C, hydroiodide): 0.0018 mg/mL
Solubility (mg/mL) room temp ([1]; Phosphate Buffer solution pH 6.8, room temperature, hydroiodide): 0.00316 mg/mL
Structure (SMILES): CC(=O)Oc1cc2c(s1)CCN(C(C(=O)C1CC1)c1ccccc1F)C2 (stereo not shown) [Prasugrel hydroiodide]
equilibrium solubility ([1]; compared with hydrochloride salt of prasugrel): comparable with solubility of hydrochloride salt of prasugrel
